Patent US20020082273A1, “Agents for use in the treatment of alzheimer's disease” (priority 1998, published 2002)
Values joined by “and” are separate entries in the source; they are usually repeats but may differ in a detail not shown here. Identical values can stand only once. “Also recorded” adds a separate entry of the source.

Experiments:
TBARS assay of OH. = type: biochemical; details: scavenger 5 mM; Fe^3+ or Cu^2+
Description: All data points are means ±SD, n=3.
The Thiobarbituric Acid-Reactive Substance (TBARS) assay for incubation mixtures with Fe^3+ or Cu^2+ was performed in a 96-well microtiter format modified from established protocols (Gutteridge et al. Biochim. Biophys. Acta 759: 38-41 (1983)). Aβ peptide species (10 μM) or Vitamin C (100 μM), were incubated with Fe^3+ or Cu^2+ (1 μM) and deoxyribose (7.5 mM, Sigma) in PBS, pH 7.4. Following incubation (37° C., 1 hour), glacial (17 M) acetic acid and 2-thiobarburic acid (1%, w/v in 0.05 M NaOH, Sigma) were added and heated (100° C., 10 min). The final mixtures were placed on ice for 1-3 minutes before absorbances at 532 nm were measured. The net absorbance change for each sample were obtained by deducting the absorbance from a control sample consisting of identical chemical components except for the Vitamin C or Aβ peptides.

Aβ = experiment: Effect of agents on Cu^2+-induced SDS-resistant Aβ polymerization; type: biochemical, human
Description: Cu^2+-induced SDS-resistant oligomerization of Aβ: Aβ (2.5 μM), 150 mM NaCl, 20 mM hepes (pH 6.6, 7.4, 9) with or without ZnCl2 or CuCl2. Following incubation (37° C.), aliquots of each reaction (2 ng peptide) were collected at 0 d, 1 d, 3 d and 5 d and western blotted using anti-Aβ monoclonal antibody 8E10 (FIG. 9). Migration of the molecular size markers are indicated (kDa). […] Cu^2+ (2-30 μM) induced SDS-resistant polymerization of peptide. […] It should be noted that other means of visualizing and/or determining the presence or absence of polymerization other than western blot analysis may be used. Such other means include but are not limited to density sedimentation by centrifugation of the samples.
It is possible that the decreased polymerization may be due to chelation of Cu^2+ by BC, however given the low binding affinity of BC for Cu^2+ compared with Aβ, it seems likely that the chelation of Cu^+ by BC prevents it from inducing SDS-resistant Ad polymerization. Therefore, Aβ may undergo a hydroxyl radical modification that promotes its assembly into SDS-resistant polymers.

[1] = tested on: Aβ deposits of AD-affected brain; experiment: Extraction (solubilization) of Aβ from post-mortem AD brain tissue homogenates, western blot densitometry; type: biochemical, human
Description: Identical regions of frontal cortex (0.5 g) from post-mortem brains of individuals with AD, as well as non-AD conditions, were homogenized in TBS, […] ±metal chelators.
0.5 g of prefrontal cortex was dissected and homogenized in PBS ±chelator as indicated. The homogenate was then centrifuged (100,000 g) and the supernatant removed, and a sample taken for western blot assay using anti-Aβ specific antibodies after Tricine PAGE. Densitometry was performed against synthetic peptide standards.
Densitometry of Aβ western blots (FIGS. 19A-19C) was performed for a series of 6 AD brain samples homogenized in the presence of chelators as indicated.
Next the ability of clioquinol to extract Aβ deposits from human brain was examined. […] Fragments of prefrontal cortex from individual post-mortem samples with the histopathological diagnosis of AD were homogenized in PBS, pH 7.4, and then pelleted after centrifugation. The pellets were then washed with agitation twice for 30 minutes, 4° C., with PBS or PBS containing clioquinol (100% =0.8 μM clioquinol). The suspension was then pelleted (10,000 g for 30 minutes) and the supernatant removed (S1) for western blot analysis using Aβ-specific antibodies (illustrated). The pellet was treated a second time in this experiment with agitation and centrifugation, and the second supernatant (S2) analysed.
Soluble Aβ (ng/g tissue) was determined as described. Total Aβ was determined following formic acid extraction of otherwise untreated tissue.
(§1) Suitable quantities of gray matter from each subject were minced to serve as pools of homogenous tissue. […] To obtain the soluble fraction, the homogenates were centrifuged at 100,000× g for 30 min (Beckman J180, Beckman instruments, Fullerton, California) and the supernatant collected in 1 ml aliquots and stored on ice or immediately frozen at −70° C. In each experiment, all protein was precipitated from 1 ml of supernatant from each treatment group using 1:5 ice cold 10% trichloracetic acid and pelleted in a bench top microfuge (Heraeus, Osteroder, Germany) at 10,000× g. The remaining pellet was frozen at −70° C.
Precipitated protein was subjected to SDS polyacrylamide gel electrophoresis (SDS-PAGE) on Novex pre-cast 10-20% Tris-Tricine gels followed by Western transfer onto 0.2 μm nitrocellulose membrane (Biorad, Hercules, Calif.). […] Each gel included two or more lanes containing known quantities of synthetic Aβ which served as internal reference standards. Blot images were captured by a Relisys scanner with transparency adapter (Teco Information Systems, Taiwan, ROC) and densitometry conducted using the NIH Image 1.6 program (National Institutes for Health, USA. Modified for PC by Scion Corporation, Frederick, Md.), calibrated using a step diffusion chart. For quantitation of Aβ in brain extracts, the internal reference standards of synthetic Aβ were utilized to produce standard curves from which values were interpolated.

[2] = tested on: Aβ deposits of age-matched control brain; experiment: Extraction of Aβ from age-matched non-AD control brain tissue; type: biochemical, human
Description: as §1
Precipitated protein was subjected to SDS polyacrylamide gel electrophoresis (SDS-PAGE) on Novex pre-cast 10-20% Tris-Tricine gels followed by Western transfer onto 0.2 μm nitrocellulose membrane (Biorad, Hercules, Calif.). Aβ was detected using the WO2, G210 or G211 monoclonal antibodies (Ida, N., et al., J. Biol. Chem., 271:22908 (1996)) in combination with HRP-conjugated rabbit anti-mouse IgG (Dako, Denmark), and visualized using chemiluminescence (ECL, Amersham Life Science, Little Chalfont, Buckinghamshire, UK). Each gel included two or more lanes containing known quantities of synthetic Aβ which served as internal reference standards. Blot images were captured by a Relisys scanner with transparency adapter (Teco Information Systems, Taiwan, ROC) and densitometry conducted using the NIH Image 1.6 program (National Institutes for Health, USA. Modified for PC by Scion Corporation, Frederick, Md.), calibrated using a step diffusion chart. For quantitation of Aβ in brain extracts, the internal reference standards of synthetic Aβ were utilized to produce standard curves from which values were interpolated.

[3] = Residual metals in post-centrifugation pellets of brain homogenates (ICP-AES); type: biochemical, human; details: Table 6
Aβ1-42 = Aβ1-42 (Homo sapiens, UniProt P05067); experiment: Effect of metal chelators on H2O2 production from Aβ1-42; type: biochemical
Chain of Aβ1-42 (P05067 672-713 limits assumed): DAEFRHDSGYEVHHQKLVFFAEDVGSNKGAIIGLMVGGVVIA

[4] = Table 5, NIST database, cited from earlier work
[5] = Table 5; NIST database; cited from earlier work
[6] = Table 5; NIST database; cited from earlier work; remark: listed apart in the source

OC[C@@H](O)[C@@H](O)[C@H](O)[C@H](O)CO [mannitol]
effect of OH. scavengers on OH. generation by Aβ1-42 (TBARS assay of OH.): neither were able to quench | effect on Cu^2+-induced SDS-resistant Aβ polymerization (Aβ): abolishes the polymerization

bathocuproinedisulfonic acid [BC]
% of total Aβ extracted [1]: 3.1% and 7.2% and 6% | % of total Aβ extracted, + PBS [1]: 2.36% and 5.4% and 3.7% | Extractable Aβ (% of total), X (mean) [1]: (5.4) % | Extractable Aβ, X (mean) [1]: 4.10 µg/g | X C/PBS (mean chelator / PBS) [1]: 3.90 | concentration response of Aβ solubilization [1]: typical concentration-dependent response with no decline in effectiveness | mean increase of Aβ solubilization over PBS alone [1]: around 4 fold | Extractable Aβ ([2]; AC subject 1, chelator 2 mM): 0.03 µg/g | Extractable Aβ (% of total) ([2]; AC subject 1, chelator 2 mM): (5) % | Extractable Aβ ([2]; AC subject 2, chelator 2 mM): 0.24 µg/g | Extractable Aβ (% of total) ([2]; AC subject 2, chelator 2 mM): (5.7) % | Extractable Aβ ([2]; AC subject 3, chelator 2 mM): 0.29 µg/g | Extractable Aβ (% of total) ([2]; AC subject 3, chelator 2 mM): (11.0) % | Extractable Aβ ([2]; AC subject 4, chelator 2 mM): 0.08 µg/g | Extractable Aβ (% of total) ([2]; AC subject 4, chelator 2 mM): (2.6) % | Extractable Aβ ([2]; AC subject 5, chelator 2 mM): 0.98 µg/g | Extractable Aβ (% of total) ([2]; AC subject 5, chelator 2 mM): (27.2) % | Extractable Aβ (% of total), X (mean) ([2]; AC subjects 1-5, chelator 2 mM): (10.3) % | Extractable Aβ, X (mean) ([2]; AC subjects 1-5, chelator 2 mM): 0.32 µg/g | X C/PBS (mean chelator / PBS) ([2]; age-matched control tissue, chelator 2 mM): 1.28 | effect on Aβ solubilization compared with AD tissue ([2]; non-demented, aged-matched controls): much reduced | Residual Al in extracted pellet ([3]; chelator 0.001 mM): 88 mg/kg | Residual Ca in extracted pellet ([3]; chelator 0.001 mM): 1306 mg/kg | Residual Cu in extracted pellet ([3]; chelator 0.001 mM): 13 mg/kg | Residual Fe in extracted pellet ([3]; chelator 0.001 mM): 275 mg/kg | Residual Mg in extracted pellet ([3]; chelator 0.001 mM): 225 mg/kg | Residual Zn in extracted pellet ([3]; chelator 0.001 mM): 47 mg/kg | Residual Al in extracted pellet ([3]; chelator 0.004 mM): 33 mg/kg | Residual Ca in extracted pellet ([3]; chelator 0.004 mM): 489 mg/kg | Residual Cu in extracted pellet ([3]; chelator 0.004 mM): 12 mg/kg | Residual Fe in extracted pellet ([3]; chelator 0.004 mM): 231 mg/kg | Residual Mg in extracted pellet ([3]; chelator 0.004 mM): 234 mg/kg | Residual Zn in extracted pellet ([3]; chelator 0.004 mM): 47 mg/kg | Residual Al in extracted pellet ([3]; chelator 0.01 mM): 73 mg/kg | Residual Ca in extracted pellet ([3]; chelator 0.01 mM): 762 mg/kg | Residual Cu in extracted pellet ([3]; chelator 0.01 mM): 13 mg/kg | Residual Fe in extracted pellet ([3]; chelator 0.01 mM): 256 mg/kg | Residual Mg in extracted pellet ([3]; chelator 0.01 mM): 223 mg/kg | Residual Zn in extracted pellet ([3]; chelator 0.01 mM): 49 mg/kg | Residual Al in extracted pellet ([3]; chelator 0.04 mM): 38 mg/kg | Residual Ca in extracted pellet ([3]; chelator 0.04 mM): 753 mg/kg | Residual Cu in extracted pellet ([3]; chelator 0.04 mM): 15 mg/kg | Residual Fe in extracted pellet ([3]; chelator 0.04 mM): 248 mg/kg | Residual Mg in extracted pellet ([3]; chelator 0.04 mM): 226 mg/kg | Residual Zn in extracted pellet ([3]; chelator 0.04 mM): 56 mg/kg | Residual Al in extracted pellet ([3]; chelator 2.0 mM): 42 mg/kg | Residual Ca in extracted pellet ([3]; chelator 2.0 mM): 1602 mg/kg | Residual Cu in extracted pellet ([3]; chelator 2.0 mM): 14 mg/kg | Residual Fe in extracted pellet ([3]; chelator 2.0 mM): 271 mg/kg | Residual Mg in extracted pellet ([3]; chelator 2.0 mM): 254 mg/kg | Residual Zn in extracted pellet ([3]; chelator 2.0 mM): 49 mg/kg | Residual Al in extracted pellet ([3]; chelator 5.0 mM): 38 mg/kg | Residual Ca in extracted pellet ([3]; chelator 5.0 mM): 912 mg/kg | Residual Cu in extracted pellet ([3]; chelator 5.0 mM): 15 mg/kg | Residual Fe in extracted pellet ([3]; chelator 5.0 mM): 249 mg/kg | Residual Mg in extracted pellet ([3]; chelator 5.0 mM): 238 mg/kg | Residual Zn in extracted pellet ([3]; chelator 5.0 mM): 53 mg/kg | effect on H2O2 formation by Aβ1-42 (Aβ1-42): substantially inhibited; also recorded: inhibited H2O2 formation | effect on Cu^2+-induced SDS-resistant Aβ polymerization (Aβ): marked decrease in polymerization | Stability constant logK10, Cu^2+ ([4]; Cu^2+): 6.1 | Stability constant logK10, Cu^+ ([4]; Cu^+): 19.1 | Stability constant logK10, Zn [5]: 4.1 | Stability constant logK10, Co [6]: 4.2

C[S+](C)[O-] [DMSO, dimethyl sulfoxide]
effect of OH. scavengers on OH. generation by Aβ1-42 (TBARS assay of OH.): neither were able to quench
